target: GCN2 (Homo sapiens (Human), UniProt Q9P2K8); assay: GCN2 Biochemical Assay (TR-FRET, GFP-eIF2S1 substrate phosphorylation); conditions: read-out: IC50 (GCN2 Inhibitory Activity)
Protocol: Experimental Example 1: GCN2 Biochemical Assay
An inhibitory effect of the inventive compound on GCN2 was identified as follows.
384-well (Greiner #784075) (or 1536-well [Greiner #782075]) plates containing 60 nl (or 20 nl for 1536-well) of compound in 100% DMSO (10 concentrations serially diluted 3.16-fold) were prepared. Two copies of plates were used—one for the GCN2 assay and a second for an artifact plate. Working reagents were prepared as follows—reaction buffer: Tris pH 7.5 20 mM, MgCl2 5 mM, DTT 1 mM, Brij-35 0.005%, EGTA 0.5 mM in water; 2× enzyme solution: GCN2 (produced in-house) 1.6 nM in reaction buffer; 2× substrate solution: GFP-eIFS1 (Thermo Fisher Scientific, PV4809) 50 nM, ATP 0.2 mM, tRNA 0.4 mg/ml in reaction buffer; p-GFP-eIF2S1 (artifact) solution: p-GFP-eIFS1 (produced by incubation of 100 nM GFP-eIF2S1 in reaction buffer with 100 uM ATP and 1 nM PERK KD enzyme for 3 hr at room temperature) 2 nM in reaction buffer; 3× stop/antibody solution: p-GFP-EIF2S1 Th-Ab (Thermo Fisher Scientific, PV4816) 6 nM, AZ13933939 3 uM, BSA 3% in reaction buffer. Reagents were loaded onto a liquid dispenser (Certus FLEX, Trajan Scientific and Medical), and 3 ul (1 ul for 1536-well) of 2× enzyme solution, followed by 3 ul (1 ul for 1536-well) of 2× substrate solution was added to the plates. When small numbers of plates were processed, the enzyme solution was added first to all plates, then the valve used for the substrate solution was primed immediately prior to use. Plates were tapped or spun 1 min/1K/RT to ensure proper mixing, followed by incubation at room temperature for 70 mins, covered/stacked in the dark. For the artifact plate, 6 ul of p-GFP-eIF2S1 solution was added prior to adding the stop/antibody solution. 3 ul (1 ul for 1536-well) of 3× stop/antibody solution was added to the plates, followed by a spin-down for 1 min/1K/RT, and incubation for 2-3 hr, sealed or covered with lids in the dark at room temperature. Plates were read on a plate reader (PHERAstar FSX, BMF Labtech) at Ex 340/Em 490/Em 520 nm.

Sequence of GCN2 (Q9P2K8 whole entry): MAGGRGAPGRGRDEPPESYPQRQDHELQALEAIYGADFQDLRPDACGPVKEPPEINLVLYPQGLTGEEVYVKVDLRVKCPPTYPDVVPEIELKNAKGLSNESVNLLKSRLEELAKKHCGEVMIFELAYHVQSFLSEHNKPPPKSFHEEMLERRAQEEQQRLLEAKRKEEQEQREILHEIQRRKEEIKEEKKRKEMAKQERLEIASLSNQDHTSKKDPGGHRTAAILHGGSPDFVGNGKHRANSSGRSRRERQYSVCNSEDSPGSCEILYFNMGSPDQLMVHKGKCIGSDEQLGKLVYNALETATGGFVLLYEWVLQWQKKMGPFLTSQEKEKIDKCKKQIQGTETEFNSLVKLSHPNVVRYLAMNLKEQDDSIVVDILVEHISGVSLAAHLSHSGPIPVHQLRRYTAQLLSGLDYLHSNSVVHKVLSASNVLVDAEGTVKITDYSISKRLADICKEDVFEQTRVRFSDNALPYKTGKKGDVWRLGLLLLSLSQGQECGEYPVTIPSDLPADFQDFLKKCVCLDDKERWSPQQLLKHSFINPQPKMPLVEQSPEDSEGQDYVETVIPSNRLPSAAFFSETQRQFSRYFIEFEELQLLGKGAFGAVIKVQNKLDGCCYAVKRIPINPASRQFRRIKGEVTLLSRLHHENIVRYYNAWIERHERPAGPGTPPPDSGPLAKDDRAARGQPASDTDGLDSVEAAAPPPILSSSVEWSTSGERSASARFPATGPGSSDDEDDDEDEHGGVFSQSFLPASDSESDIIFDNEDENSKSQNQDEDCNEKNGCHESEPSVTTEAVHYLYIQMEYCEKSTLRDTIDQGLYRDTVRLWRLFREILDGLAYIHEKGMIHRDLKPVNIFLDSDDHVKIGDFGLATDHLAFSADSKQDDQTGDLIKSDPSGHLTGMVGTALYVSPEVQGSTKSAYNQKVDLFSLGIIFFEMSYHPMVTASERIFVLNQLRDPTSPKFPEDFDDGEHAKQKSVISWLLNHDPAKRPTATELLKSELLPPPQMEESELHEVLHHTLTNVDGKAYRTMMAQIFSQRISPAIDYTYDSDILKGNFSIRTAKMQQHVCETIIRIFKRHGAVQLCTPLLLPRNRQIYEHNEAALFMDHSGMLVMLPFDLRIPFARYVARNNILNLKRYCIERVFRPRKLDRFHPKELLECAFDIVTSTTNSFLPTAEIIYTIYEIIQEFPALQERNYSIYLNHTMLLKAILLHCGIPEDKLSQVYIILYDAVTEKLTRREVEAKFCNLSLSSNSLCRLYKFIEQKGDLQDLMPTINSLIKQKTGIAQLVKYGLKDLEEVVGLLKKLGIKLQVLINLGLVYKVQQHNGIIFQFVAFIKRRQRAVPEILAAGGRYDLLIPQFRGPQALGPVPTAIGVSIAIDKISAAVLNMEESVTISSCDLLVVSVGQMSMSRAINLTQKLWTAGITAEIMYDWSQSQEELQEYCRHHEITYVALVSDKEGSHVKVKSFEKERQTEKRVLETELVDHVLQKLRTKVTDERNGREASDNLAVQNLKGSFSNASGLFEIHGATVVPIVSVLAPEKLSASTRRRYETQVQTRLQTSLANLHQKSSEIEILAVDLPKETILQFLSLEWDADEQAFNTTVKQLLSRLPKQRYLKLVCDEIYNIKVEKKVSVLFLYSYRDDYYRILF

Question: For Cc1cnc(Nc2cc(C)n(C)n2)nc1-c1c[nH]c2c(N(C)C(=O)CN3CC[C@H](Oc4ccncn4)C3)cccc12 [Example 21, (S)-N-(3-(2-((1,5-dimethyl-1H-pyrazol-3-yl)amino)-5-methylpyrimidin-4-yl)-1H-indol-7-yl)-N-methyl-2-(3-(pyrimidin-4-yloxy)pyrrolidin-1-yl)acetamide], which IC50 is on record?
Answer: 10 to 100 nM

Question: Cc1cnc(Nc2cc(C)n(C)n2)nc1-c1c[nH]c2c(NC(=O)C(C)N3CCCC3)cccc12 (stereo not drawn) [Example 22, N-(3-(2-((1,5-dimethyl-1H-pyrazol-3-yl)amino)-5-methylpyrimidin-4-yl)-1H-indol-7-yl)-2-(pyrrolidin-1-yl)propanamide] was tested. Which IC50 did it give?
Answer: 100 to 1000 nM

Question: With Cc1cnc(Nc2cc(C)n(C)n2)nc1-c1c[nH]c2c(NC(=O)C(C)N3CC[C@H](Oc4ccncc4)C3)cccc12 (stereo partly drawn) [Example 23, N-(3-(2-((1,5-dimethyl-1H-pyrazol-3-yl)amino)-5-methylpyrimidin-4-yl)-1H-indol-7-yl)-2-((S)-3-(pyridin-4-yloxy)pyrrolidin-1-yl)propenamide] as the compound, how does the IC50 read?
Answer: 100 to 1000 nM

Question: How did the IC50 turn out when Cc1cnc(Nc2cc(C)n(C)n2)nc1-c1c[nH]c2c(NC(=O)C(C)(C)N3CCCC3)cccc12 [Example 24, N-(3-(2-((1,5-dimethyl-1H-pyrazol-3-yl)amino)-5-methylpyrimidin-4-yl)-1H-indol-7-yl)-2-methyl-2-(pyrrolidin-1-yl)propenamide] was run?
Answer: 100 to 1000 nM

Question: Which IC50 does the source give for Cc1cnc(Nc2cc(C)n(C)n2)nc1-c1c[nH]c2c(NC(=O)C(C)(C)N3CC[C@H](Oc4ccncc4)C3)cccc12 [Example 25, (S)-N-(3-(2-((1,5-dimethyl-1H-pyrazol-3-yl)amino)-5-methylpyrimidin-4-yl)-1H-indol-7-yl)-2-methyl-2-(3-(pyridin-4-yloxy)pyrrolidin-1-yl)propanamide] here?
Answer: > 1000 nM

Question: With Cc1cnc(Nc2cc(C)n(C)n2)nc1-c1c[nH]c2c(NC(=O)CN3CC(O)C3)cccc12 [Example 26, N-(3-(2-((1,5-dimethyl-1H-pyrazol-3-yl)amino)-5-methylpyrimidin-4-yl)-1H-indol-7-yl)-2-(3-hydroxyazetidin-1-yl)acetamide] as the compound, how does the IC50 read?
Answer: 10 to 100 nM

Question: Which IC50 does the source give for Cc1cnc(Nc2cc(C)n(C)n2)nc1-c1c[nH]c2c(NC(=O)CN3CC(OCc4ccncc4)C3)cccc12 [Example 27, N-(3-(2-((1,5-dimethyl-1H-pyrazol-3-yl)amino)-5-methylpyrimidin-4-yl)-1H-indol-7-yl)-2-(3-(pyridin-4-ylmethoxy)azetidin-1-yl)acetamide] here?
Answer: 10 to 100 nM

Question: Which IC50 does the source give for Cc1cnc(Nc2cc(C)n(C)n2)nc1-c1c[nH]c2c(NC(=O)CN3CC(Oc4ccncc4)C3)cccc12 [Example 28, N-(3-(2-((1,5-dimethyl-1H-pyrazol-3-yl)amino)-5-methylpyrimidin-4-yl)-1H-indol-7-yl)-2-(3-(pyridin-4-yloxy)azetidin-1-yl)acetamide] here?
Answer: 10 to 100 nM

Question: For Cc1cnc(Nc2cc(C)n(C)n2)nc1-c1c[nH]c2c(NC(=O)CN3CC(Oc4ccncn4)C3)cccc12 [Example 29, N-(3-(2-((1,5-dimethyl-1H-pyrazol-3-yl)amino)-5-methylpyrimidin-4-yl)-1H-indol-7-yl)-2-(3-(pyrimidin-4-yloxy)azetidin-1-yl)acetamide], which IC50 is on record?
Answer: 10 to 100 nM

Question: Cc1cnc(Nc2cc(C)n(C)n2)nc1-c1c[nH]c2c(NC(=O)CN3CC(Oc4cccnc4)C3)cccc12 [Example 30, N-(3-(2-((1,5-dimethyl-1H-pyrazol-3-yl)amino)-5-methylpyrimidin-4-yl)-1H-indol-7-yl)-2-(3-(pyridin-3-yloxy)azetidin-1-yl)acetamide] was tested. Which IC50 did it give?
Answer: 100 to 1000 nM

Question: How did the IC50 turn out when COC(=O)C1CN(CC(=O)Nc2cccc3c(-c4nc(Nc5cc(C)n(C)n5)ncc4C)c[nH]c23)C1 [Example 31, methyl 1-(2-((3-(2-((1,5-dimethyl-1H-pyrazol-3-yl)amino)-5-methylpyrimidin-4-yl)-1H-indol-7-yl)amino)-2-oxoethyl)azetidine-3-carboxylate] was run?
Answer: 10 to 100 nM

Question: Which IC50 does the source give for Cc1cnc(Nc2cc(C)n(C)n2)nc1-c1c[nH]c2c(NC(=O)CN3CC(C(=O)O)C3)cccc12 [Example 32, 1-(2-((3-(2-((1,5-dimethyl-1H-pyrazol-3-yl)amino)-5-methylpyrimidin-4-yl)-1H-indol-7-yl)amino)-2-oxoethyl)azetidine-3-carboxylic acid] here?
Answer: 10 to 100 nM

Question: Cc1cnc(Nc2cc(C)n(C)n2)nc1-c1c[nH]c2c(NC(=O)CN3CC(Oc4cc(C(=O)NC5CC5)on4)C3)cccc12 [Example 33, N-cyclopropyl-3-((1-(2-((3-(2-((1,5-dimethyl-1H-pyrazol-3-yl)amino)-5-methylpyrimidin-4-yl)-1H-indol-7-yl)amino)-2-oxoethyl)azetidin-3-yl)oxy)isoxazole-5-carboxamide] was tested. Which IC50 did it give?
Answer: 10 to 100 nM

Question: Which IC50 does the source give for Cc1cnc(Nc2cc(C)n(C)n2)nc1-c1c[nH]c2c(NC(=O)CN3CC=C(c4ccncc4)CC3)cccc12 [Example 34, 2-(3,6-dihydro-[4,4′-bipyridin]-1(2H)-yl)-N-(3-(2-((1,5-dimethyl-1H-pyrazol-3-yl)amino)-5-methylpyrimidin-4-yl)-1H-indol-7-yl)acetamide] here?
Answer: 100 to 1000 nM

Question: With Cc1cnc(Nc2cc(C)n(C)n2)nc1-c1c[nH]c2c(NC(=O)CN3CC=C(c4cnn(C)c4)CC3)cccc12 [Example 35, N-(3-(2-((1,5-dimethyl-1H-pyrazol-3-yl)amino)-5-methylpyrimidin-4-yl)-1H-indol-7-yl)-2-(4-(1-methyl-1H-pyrazol-4-yl)-3,6-dihydropyridin-1(2H)-yl)acetamide] as the compound, how does the IC50 read?
Answer: 100 to 1000 nM

Question: With Cc1cnc(Nc2cc(C)n(C)n2)nc1-c1c[nH]c2c(NC(=O)CN3CCC(N4CCN(C)CC4)CC3)cccc12 [Example 36, N-(3-(2-((1,5-dimethyl-1H-pyrazol-3-yl)amino)-5-methylpyrimidin-4-yl)-1H-indol-7-yl)-2-(4-(4-methylpiperazin-1-yl)piperidin-1-yl)acetamide] as the compound, how does the IC50 read?
Answer: 100 to 1000 nM

Question: With Cc1cnc(Nc2cc(C)n(C)n2)nc1-c1c[nH]c2c(NC(=O)CN3CCC(N4CCOCC4)CC3)cccc12 [Example 37, N-(3-(2-((1,5-dimethyl-1H-pyrazol-3-yl)amino)-5-methylpyrimidin-4-yl)-1H-indol-7-yl)-2-(4-morpholinopiperidin-1-yl)acetamide] as the compound, how does the IC50 read?
Answer: 100 to 1000 nM

Question: With Cc1cnc(Nc2cc(C)n(C)n2)nc1-c1c[nH]c2c(NC(=O)CN3CCC(Oc4cccnc4)CC3)cccc12 [Example 38, N-(3-(2-((1,5-dimethyl-1H-pyrazol-3-yl)amino)-5-methylpyrimidin-4-yl)-1H-indol-7-yl)-2-(4-(pyridin-3-yloxy)piperidin-1-yl)acetamide] as the compound, how does the IC50 read?
Answer: 100 to 1000 nM

Question: Cc1cnc(Nc2cc(C)n(C)n2)nc1-c1c[nH]c2c(NC(=O)CN3CCC(Oc4ccccn4)CC3)cccc12 [Example 39, N-(3-(2-((1,5-dimethyl-1H-pyrazol-3-yl)amino)-5-methylpyrimidin-4-yl)-1H-indol-7-yl)-2-(4-(pyridin-2-yloxy)piperidin-1-yl)acetamide] was tested. Which IC50 did it give?
Answer: 100 to 1000 nM

Question: With Cc1cnc(Nc2cc(C)n(C)n2)nc1-c1c[nH]c2c(NC(=O)CN3CCC(Oc4ccncc4)CC3)cccc12 [Example 40, N-(3-(2-((1,5-dimethyl-1H-pyrazol-3-yl)amino)-5-methylpyrimidin-4-yl)-1H-indol-7-yl)-2-(4-(pyridin-4-yloxy)piperidin-1-yl)acetamide] as the compound, how does the IC50 read?
Answer: 100 to 1000 nM

Question: For Cc1cnc(Nc2cc(C)n(C)n2)nc1-c1c[nH]c2c(NC(=O)CN3CCC(Oc4ncccn4)CC3)cccc12 [Example 41, N-(3-(2-((1,5-dimethyl-1H-pyrazol-3-yl)amino)-5-methylpyrimidin-4-yl)-1H-indol-7-yl)-2-(4-(pyrimidin-2-yloxy)piperidin-1-yl)acetamide], which IC50 is on record?
Answer: 10 to 100 nM

Question: Which IC50 does the source give for Cc1cc(C)nc(OC2CCN(CC(=O)Nc3cccc4c(-c5nc(Nc6cc(C)n(C)n6)ncc5C)c[nH]c34)CC2)n1 [Example 42, N-(3-(2-((1,5-dimethyl-1H-pyrazol-3-yl)amino)-5-methylpyrimidin-4-yl)-1H-indol-7-yl)-2-(4-((4,6-dimethylpyrimidin-2-yl)oxy)piperidin-1-yl)acetamide] here?
Answer: 10 to 100 nM

Question: With Cc1cnc(Nc2cc(C)n(C)n2)nc1-c1c[nH]c2c(NC(=O)CN3CCC(Oc4cc(C(=O)NC5CC5)on4)CC3)cccc12 [Example 43, N-cyclopropyl-3-((1-(2-((3-(2-((1,5-dimethyl-1H-pyrazol-3-yl)amino)-5-methylpyrimidin-4-yl)-1H-indol-7-yl)amino)-2-oxoethyl)piperidin-4-yl)oxy)isoxazole-5-carboxamide] as the compound, how does the IC50 read?
Answer: 10 to 100 nM

Question: With Cc1cnc(Nc2cc(C)n(C)n2)nc1-c1c[nH]c2c(NC(=O)CN3CCCC(Oc4cc(C(=O)NC5CC5)on4)C3)cccc12 (stereo not drawn) [Example 44, N-cyclopropyl-3-((1-(2-((3-(2-((1,5-dimethyl-1H-pyrazol-3-yl)amino)-5-methylpyrimidin-4-yl)-1H-indol-7-yl)amino)-2-oxoethyl)piperidin-3-yl)oxy)isoxazole-5-carboxamide] as the compound, how does the IC50 read?
Answer: 100 to 1000 nM
